Assays:
[1] = test system: A-549; experiment: Inhibition of cell growth by counting cells, A-549; assay type: cell-based, human; details: Homo sapiens, A549, 72 h; three days of incubation; read-out: IC50 (molar) A-549
Experimental: (§1) 1°.—Inhibition of Cell Growth by Counting Cells.
(§2) This form of the assay employs 24 well multidishes of 16 mm diameter (Bergeron, 1984; Schroeder, 1981). The tumor cell lines employed are: P-388 (ATCC CCL 46), suspension culture of a lymphoid neoplasm from a DBA/2 mouse; A-549 (ATCC CCL 185), monolayer culture of a human lung carcinoma; HT-29 (ATCC HTB-38), monolayer culture of a human colon carcinoma; MEL-28 (ATCC HTB-72), monolayer culture of a human melanoma and DU-145 (ATCC HTB-81), monolayer culture of a human prostate carcinoma.
(§3) Cells were maintained, in logarithmic phase of growth in Eagle's Minimum Essential Medium, with Earle's Balanced Salts, with non-essential amino acids, with 2.0 mM L-Glutamine, without sodium bicarbonate (EMEM/neaa), supplemented with 10% Fetal Calf Serum (FCS), 10^−2 M. sodium bicarbonate and 0.1 U/l penicillin G+0.1 g/l streptomycin sulfate. For the experiments, cells are harvested from subconfluent cultures using trypsin and resuspended in fresh medium before plating.
(§4) A-549, HT-29, MEL-28 and DU-145 cells were seeded into 16 mm diameter wells at 1×10^4 cells per well in 1 ml aliquots of EMEM 5% FCS containing different concentrations of the sample to be tested. A separate set of cultures without drug was seeded as control of growth, to ensure that cells remained in exponential phase of growth. All determinations are carrying out in duplicate. After three days of incubation at 37° C., 5% CO2 in a 98% humid atmosphere cells were stained with 0.1% crystal violet. An approximately IC50 was determined by comparing the growth in wells with drug to the growth in wells control.
(§5) For quantifying the activity, after the incubation time, cells are trypsinized and counted in a Coulter Counter ZM. All counts (net cells per well), represent the average of duplicate wells. % G, percent of growth relative to cultures without drug. The results of these assays are used to generate dose-response curves from which more precise IC50 values are determined (sample concentration which produces 50% cell growth inhibition).
(§6) Obtained results may predict the usefulness of a certain drug as a potential cancer treatment. For this technique, compounds which show IC50 values smaller than 1 μg/ml are selected to continue with further studies. IC50's data allow to predict that not only could a drug be cystostatic, but also it could have a potential in terms of tumor reduction.

[2] = test system: HT-29; experiment: Inhibition of cell growth by counting cells, HT-29; assay type: cell-based, human; details: Homo sapiens, HT-29, 72 h; three days of incubation; read-out: IC50 (molar) HT-29
Experimental: as §1, §2, §3, §4, §5, §6

Structure (SMILES) | IC50 [1] [nM] | IC50 [2] [nM]
COc1cc2c(cc1OC(=O)CCc1ccccc1)CCN[C@]21CS[C@@H]2c3c(OC(C)=O)c(C)c4c(c3[C@H](COC1=O)N1C2[C@H]2c3c(cc(C)c(OC)c3O)C[C@@H]([C@@H]1C#N)N2C)OCO4 (some centres unmarked) [Compound 11] | 0.554 | 0.554
COc1cc2c(cc1OC(=O)CCCl)CCN[C@]21CS[C@@H]2c3c(OC(C)=O)c(C)c4c(c3[C@H](COC1=O)N1C2[C@H]2c3c(cc(C)c(OC)c3O)C[C@@H]([C@@H]1C#N)N2C)OCO4 (some centres unmarked) [Compound 12] | 0.116 | 0.116
COc1cc2c(cc1OC(=O)[C@H](C)NC(=O)OC(C)(C)C)CCN[C@]21CS[C@@H]2c3c(OC(C)=O)c(C)c4c(c3[C@H](COC1=O)N1C2[C@H]2c3c(cc(C)c(OC)c3O)C[C@@H]([C@@H]1C#N)N2C)OCO4 (some centres unmarked) [Compound 24] | 0.531 | 0.531
COc1cc2c(cc1OC(=O)OC(C)(C)C)CCN[C@]21CS[C@@H]2c3c(OC(C)=O)c(C)c4c(c3[C@H](COC1=O)N1C2[C@H]2c3c(cc(C)c(OC)c3OC)C[C@@H]([C@@H]1C#N)N2C)OCO4 (some centres unmarked) [Compound 45] | 0.113 | 0.113
COC1=C(C)C(=O)C2=C(C1=O)[C@@H]1C3[C@@H]4SC[C@]5(NCCc6cc(O)c(OC)cc65)C(=O)OC[C@@H](c5c6c(c(C)c(OC(C)=O)c54)OCO6)N3[C@@H](C#N)[C@H](C2)N1C (some centres unmarked) [Compound 52] | 1.27 | 1.27
CCCC(=O)Oc1cc2c(cc1OC)[C@@]1(CS[C@@H]3c4c(OC(C)=O)c(C)c5c(c4[C@H](COC1=O)N1C3[C@H]3c4c(cc(C)c(OC)c4OC(=O)CCC)C[C@@H]([C@@H]1O)N3C)OCO5)NCC2 (some centres unmarked) [Compound 81] | 5.54 | 5.54
CCCCCCCC(=O)Oc1cc2c(cc1OC)[C@@]1(CS[C@@H]3c4c(OC(C)=O)c(C)c5c(c4[C@H](COC1=O)N1C3[C@H]3c4c(cc(C)c(OC)c4OC(=O)CCCCCCC)C[C@@H]([C@@H]1O)N3C)OCO5)NCC2 (some centres unmarked) [Compound 82] | 98.6 | 98.6
COc1cc2c(cc1OC(=O)/C=C/c1ccccc1)CCN[C@]21CS[C@@H]2c3c(OC(C)=O)c(C)c4c(c3[C@H](COC1=O)N1C2[C@H]2c3c(cc(C)c(OC)c3OC(=O)/C=C/c3ccccc3)C[C@@H]([C@@H]1O)N2C)OCO4 (some centres unmarked) [Compound 84] | 48.9 | 48.9
COc1cc2c(cc1OC(=O)OCc1ccccc1)CCN[C@]21CS[C@@H]2c3c(OC(C)=O)c(C)c4c(c3[C@H](COC1=O)N1C2[C@H]2c3c(cc(C)c(OC)c3OC(=O)OCc3ccccc3)C[C@@H]([C@@H]1O)N2C)OCO4 (some centres unmarked) [Compound 85] | 9.71 | 9.71
COc1cc2c(cc1OC(=O)OC(C)(C)C)CCN[C@]21CS[C@@H]2c3c(OC(=O)OC(C)(C)C)c(C)c4c(c3[C@H](COC1=O)N1C2[C@H]2c3c(cc(C)c(OC)c3O)C[C@@H]([C@@H]1C#N)N2C)OCO4 (some centres unmarked) [Compound 108] | 0.108 | 0.108

Source: patent US7759345B2, “Antitumoral derivatives of ET-743” (priority 2001, dated 2010)
